{
  "source": "paper PMC7329812",
  "about": "(Scientific Reports, 2020)",
  "key": {"[1]": {"target": "NaChBac (Halalkalibacterium halodurans (Bacillus halodurans), UniProt Q9KCR8)", "sequence (Q9KCR8 1-274)": "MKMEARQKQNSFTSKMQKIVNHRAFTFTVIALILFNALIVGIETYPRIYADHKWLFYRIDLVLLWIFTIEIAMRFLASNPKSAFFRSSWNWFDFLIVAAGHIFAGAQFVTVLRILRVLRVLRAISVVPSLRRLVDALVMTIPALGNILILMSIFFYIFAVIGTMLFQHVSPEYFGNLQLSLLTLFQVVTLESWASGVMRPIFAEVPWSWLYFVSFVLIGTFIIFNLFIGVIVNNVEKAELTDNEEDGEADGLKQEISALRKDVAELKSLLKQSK", "experiment": "cell-based", "format": "cell-based", "details": "for inhibition at 7 µM: HEK293, read-out: inhibition of WT NaChBac peak currents"}, "[2]": {"target": "human NaV1.7 (Homo sapiens, UniProt Q15858)", "sequence (Q15858 whole entry)": "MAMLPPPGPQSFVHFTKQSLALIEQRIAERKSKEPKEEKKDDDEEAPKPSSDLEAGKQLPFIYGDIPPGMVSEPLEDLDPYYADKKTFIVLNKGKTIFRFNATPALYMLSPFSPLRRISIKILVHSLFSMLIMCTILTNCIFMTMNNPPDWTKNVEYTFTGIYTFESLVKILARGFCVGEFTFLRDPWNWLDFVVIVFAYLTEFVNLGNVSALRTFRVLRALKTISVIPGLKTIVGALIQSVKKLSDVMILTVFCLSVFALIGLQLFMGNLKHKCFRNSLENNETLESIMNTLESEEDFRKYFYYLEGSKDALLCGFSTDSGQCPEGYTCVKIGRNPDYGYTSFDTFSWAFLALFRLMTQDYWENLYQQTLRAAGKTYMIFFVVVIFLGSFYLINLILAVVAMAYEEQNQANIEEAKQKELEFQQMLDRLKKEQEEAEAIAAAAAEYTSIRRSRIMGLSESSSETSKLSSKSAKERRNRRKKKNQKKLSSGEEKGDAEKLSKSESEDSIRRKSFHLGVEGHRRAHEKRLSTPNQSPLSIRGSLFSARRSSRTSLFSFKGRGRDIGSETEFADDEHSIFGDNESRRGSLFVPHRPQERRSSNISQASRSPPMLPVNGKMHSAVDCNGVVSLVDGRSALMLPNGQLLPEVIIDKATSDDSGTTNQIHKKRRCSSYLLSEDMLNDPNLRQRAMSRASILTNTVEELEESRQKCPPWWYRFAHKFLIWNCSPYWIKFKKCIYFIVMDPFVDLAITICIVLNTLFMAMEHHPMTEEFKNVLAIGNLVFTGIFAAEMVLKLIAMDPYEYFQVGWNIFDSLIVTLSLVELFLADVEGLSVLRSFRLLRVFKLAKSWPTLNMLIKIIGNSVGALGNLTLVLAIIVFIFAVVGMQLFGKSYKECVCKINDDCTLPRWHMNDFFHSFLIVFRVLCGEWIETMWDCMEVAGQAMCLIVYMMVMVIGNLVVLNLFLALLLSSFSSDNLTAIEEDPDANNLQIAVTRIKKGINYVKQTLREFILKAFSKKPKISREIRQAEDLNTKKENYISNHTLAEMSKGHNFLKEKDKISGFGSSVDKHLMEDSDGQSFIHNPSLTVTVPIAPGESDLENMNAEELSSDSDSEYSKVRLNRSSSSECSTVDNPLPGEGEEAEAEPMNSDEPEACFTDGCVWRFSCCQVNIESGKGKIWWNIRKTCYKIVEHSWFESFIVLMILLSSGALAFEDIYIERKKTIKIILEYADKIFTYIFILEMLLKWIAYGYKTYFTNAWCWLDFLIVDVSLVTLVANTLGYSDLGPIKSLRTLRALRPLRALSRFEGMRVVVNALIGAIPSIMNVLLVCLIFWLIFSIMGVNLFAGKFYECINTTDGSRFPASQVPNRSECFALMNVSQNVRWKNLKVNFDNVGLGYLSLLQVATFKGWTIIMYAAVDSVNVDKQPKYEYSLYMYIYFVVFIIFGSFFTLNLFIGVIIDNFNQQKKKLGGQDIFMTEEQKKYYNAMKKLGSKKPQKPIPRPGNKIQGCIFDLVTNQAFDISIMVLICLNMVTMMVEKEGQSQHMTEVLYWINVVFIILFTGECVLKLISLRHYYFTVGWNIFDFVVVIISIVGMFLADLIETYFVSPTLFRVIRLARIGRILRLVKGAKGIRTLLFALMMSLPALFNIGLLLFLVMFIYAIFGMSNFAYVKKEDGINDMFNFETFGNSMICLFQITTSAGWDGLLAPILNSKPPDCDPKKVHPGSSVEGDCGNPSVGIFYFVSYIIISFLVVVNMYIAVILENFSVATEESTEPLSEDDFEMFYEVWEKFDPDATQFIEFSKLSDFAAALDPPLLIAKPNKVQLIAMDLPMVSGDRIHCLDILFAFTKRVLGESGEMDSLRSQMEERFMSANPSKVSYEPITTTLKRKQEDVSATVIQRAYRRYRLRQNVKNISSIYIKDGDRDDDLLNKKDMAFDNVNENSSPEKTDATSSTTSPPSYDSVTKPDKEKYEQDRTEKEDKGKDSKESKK", "experiment": "cell-based", "format": "cell-based"}, "[3]": {"system": "F224A NaChBac", "format": "cell-based, Bacillus halodurans", "details": "for effect on F224A NaChBac channel currents: 7 µM"}, "[4]": {"system": "F227A NaChBac", "format": "cell-based, Bacillus halodurans"}},
  "note": "Like-named read-outs stand apart in the source and are kept apart here.",
  "data": [
    {"molecule": "COc1cc(NC(=O)c2ccc(-c3ccc(Cl)cc3)o2)cc(OC)c1", "note": "[A-803467]", "values": [
      {"measurement": "% of block in NaChBac", "setting": "[1]", "result": "-6.3±4.1", "unit": "%"},
      {"measurement": "effect on NaChBac channel currents", "setting": "[1]", "result": "no effects"}
    ]},
    {"molecule": "CCN1C[C@]2(COC)[C@H](O)C[C@H](OC)[C@@]34[C@@H]5C[C@@]6(O)[C@H](OC(=O)c7ccccc7)[C@@H]5[C@@](OC(C)=O)([C@@H]([C@H](OC)[C@H]23)[C@@H]14)[C@@H](O)[C@@H]6OC", "note": "[Aconitine]", "values": [
      {"measurement": "G–V slope factor k[n], NaChBac, after compound", "setting": "[1]", "result": "5.0 ± 0.2"},
      {"measurement": "Hill slope, NaChBac dose-response", "setting": "[1]", "result": 1.0},
      {"measurement": "IC50", "setting": "[1]", "result": 1.3, "unit": "µM"},
      {"measurement": "effect on NaChBac channel currents", "setting": "[1]", "result": "significantly blocked peak inward Na^+ current"},
      {"measurement": "block of NaChBac channel", "setting": "[1]; 2 µM", "result": "~ 50%"},
      {"measurement": "inhibition at 7 µM", "setting": "[1]; 7 µM", "result": "~80", "unit": "%"},
      {"measurement": "G–V slope factor k[n], NaV1.7, after compound", "setting": "[2]", "result": "6.7 ± 0.2"},
      {"measurement": "Hill slope, NaV1.7 dose-response", "setting": "[2]", "result": 1.6},
      {"measurement": "IC50", "setting": "[2]", "result": 7.4, "unit": "µM"},
      {"measurement": "block of NaV1.7 channel", "setting": "[2]; 7 µM", "result": "~ 50%"},
      {"measurement": "effect on F224A NaChBac channel currents", "setting": "[3]", "result": "no effect"},
      {"measurement": "effect on F227A NaChBac channel currents", "setting": "[4]; 7 µM", "result": "reduced effect"}
    ]},
    {"molecule": "Nc1c(Br)cc(Br)cc1CN[C@H]1CC[C@H](O)CC1", "note": "[Ambroxol]", "values": [
      {"measurement": "G–V slope factor k[n], NaChBac, after compound", "setting": "[1]", "result": "5.7 ± 0.6"},
      {"measurement": "effect on NaChBac channel currents", "setting": "[1]", "result": "robust inhibition"},
      {"measurement": "% of block in NaChBac", "setting": "[1]; hek 293 cells", "result": "93.6±3.8", "unit": "%"},
      {"measurement": "G–V slope factor k[n], NaV1.7, after compound", "setting": "[2]", "result": "6.7 ± 0.2"},
      {"measurement": "effect on NaV1.7 channel currents", "setting": "[2]", "result": "robust inhibition"}
    ]},
    {"molecule": "CCCCN1CCCCC1C(=O)Nc1c(C)cccc1C", "note": "(stereo not shown) [Bupivacaine]", "values": [
      {"measurement": "% of block in NaChBac", "setting": "[1]; hek 293 cells", "result": "46.6±2.9", "unit": "%"}
    ]},
    {"molecule": "CCN(CC)CC(=O)Nc1c(C)cccc1C", "note": "[Lidocaine]", "values": [
      {"measurement": "G–V slope factor k[n], NaChBac, after compound", "setting": "[1]", "result": "4.8 ± 0.4"},
      {"measurement": "% of block in NaChBac", "setting": "[1]; hek 293 cells", "result": "74.1±2.3", "unit": "%"},
      {"measurement": "G–V slope factor k[n], NaV1.7, after compound", "setting": "[2]", "result": "7.8 ± 0.2"},
      {"measurement": "lidocaine block of F224A NaChBac channels versus WT", "setting": "[3]", "result": "decreased but still robust block"},
      {"measurement": "lidocaine block of F227A NaChBac channels versus WT", "setting": "[4]", "result": "no change in block"}
    ]},
    {"molecule": "Cc1cccc(C)c1NC(=O)C1CCCCN1C", "note": "(stereo not shown) [Mepivacaine]", "values": [
      {"measurement": "% of block in NaChBac", "setting": "[1]; hek 293 cells", "result": "67.7±2.5", "unit": "%"}
    ]},
    {"molecule": "Cc1cccc(C)c1OCC(C)N", "note": "(stereo not shown) [Mexiletine]", "values": [
      {"measurement": "% of block in NaChBac", "setting": "[1]; hek 293 cells", "result": "74.2±1.8", "unit": "%"}
    ]},
    {"molecule": "Cc1cccc(C)c1NC(=O)CC12CCCN1CCC2", "note": "[Pilsicaineide]", "values": [
      {"measurement": "% of block in NaChBac", "setting": "[1]", "result": "50.5±2.7", "unit": "%"}
    ]},
    {"molecule": "CC[N+](CC)(CC)CC(=O)Nc1c(C)cccc1C", "note": "[QX-314]", "values": [
      {"measurement": "% of block in NaChBac", "setting": "[1]; hek 293 cells", "result": "16.2±2.6", "unit": "%"}
    ]},
    {"molecule": "C[C@H](NCc1ccc(OCc2ccccc2F)cc1)C(N)=O", "note": "[Ralfinamide]", "values": [
      {"measurement": "% of block in NaChBac", "setting": "[1]; hek 293 cells", "result": "97.7±3.0", "unit": "%"}
    ]},
    {"molecule": "COc1ccccc1OCC(O)CN1CCN(CC(=O)Nc2c(C)cccc2C)CC1", "note": "(stereo not shown) [Ranolazine]", "values": [
      {"measurement": "% of block in NaChBac", "setting": "[1]; hek 293 cells", "result": "42.5±4.3", "unit": "%"}
    ]},
    {"molecule": "Cc1ccc(C(=O)C(C)CN2CCCCC2)cc1", "note": "(stereo not shown) [Tolperisone]", "values": [
      {"measurement": "% of block in NaChBac", "setting": "[1]; hek 293 cells", "result": "86.2±2.5", "unit": "%"}
    ]},
    {"molecule": "COc1ccc(C(=O)O[C@H]2CC[C@@]3(C)[C@@H]4CC[C@H]5[C@]6(O)C[C@H](O)[C@@]7(O)[C@@H](CN8C[C@@H](C)CC[C@H]8[C@@]7(C)O)[C@]6(O)C[C@@]53O[C@]24O)cc1OC", "note": "[Veratridine]", "values": [
      {"measurement": "G–V slope factor k[n], NaChBac, after compound", "setting": "[1]", "result": "10.3 ± 0.3"},
      {"measurement": "Hill slope, NaChBac dose-response", "setting": "[1]", "result": 0.3},
      {"measurement": "effect on NaChBac channel currents", "setting": "[1]", "result": "significantly blocked peak inward Na^+ current"},
      {"measurement": "ΔV1/2 of G–V curve, WT NaChBac", "setting": "[1]; 7 µM", "result": "7.7 ± 1.8", "unit": "mV"},
      {"measurement": "inhibition at 7 µM", "setting": "[1]; 7 µM", "result": "55.6 ± 2", "unit": "%"},
      {"measurement": "% of block in NaChBac", "setting": "[1]; hek 293 cells", "result": "65.6±3.2", "unit": "%"},
      {"measurement": "IC50", "setting": "[1]; read-out: IC50 for NaChBac", "result": 8.1, "unit": "µM"},
      {"measurement": "effect on F224A NaChBac channel currents", "setting": "[3]", "result": "minimal or no block"},
      {"measurement": "inhibition of F227A NaChBac peak currents", "setting": "[4]; 7 µM", "result": "65.1 ± 1.7", "unit": "%"},
      {"measurement": "ΔV1/2 of G–V curve, F227A NaChBac", "setting": "[4]; 7 µM", "result": "20.1 ± 2.3", "unit": "mV"}
    ]},
    {"molecule": "COc1ccc(CCN(C)CCCOc2nsc(-c3ccccc3)n2)cc1OC", "note": "[kc12291]", "values": [
      {"measurement": "% of block in NaChBac", "setting": "[1]; hek 293 cells", "result": "76.3±1.1", "unit": "%"}
    ]},
    {"molecule": "NC(=O)N1c2ccccc2CC(=O)c2ccccc21", "note": "[oxcarbazepine]", "values": [
      {"measurement": "% of block in NaChBac", "setting": "[1]; hek 293 cells", "result": "18.2±2.5", "unit": "%"}
    ]},
    {"molecule": "NC1=N[C@H](O)[C@H]2[C@H]3O[C@]4(O)O[C@@H]([C@@H](O)[C@@]2(N1)[C@@H]4O)[C@]3(O)CO", "note": "[ttx, tetrodotoxin]", "values": [
      {"measurement": "% of block in NaChBac", "setting": "[1]", "result": "0.5±3.6", "unit": "%"},
      {"measurement": "effect on NaChBac channel currents", "setting": "[1]", "result": "did not significantly alter currents"}
    ]},
    {"molecule": "GSMTx-4", "values": [
      {"measurement": "% of block in NaChBac", "setting": "[1]", "result": "-5.1±3.0", "unit": "%"}
    ]},
    {"molecule": "Huwentoxin-IV", "values": [
      {"measurement": "% of block in NaChBac", "setting": "[1]", "result": "-6.7±2.9", "unit": "%"}
    ]},
    {"molecule": "ProTx-I", "values": [
      {"measurement": "% of block in NaChBac", "setting": "[1]", "result": "-2.0±3.0", "unit": "%"}
    ]},
    {"molecule": "ProTx-II", "values": [
      {"measurement": "% of block in NaChBac", "setting": "[1]", "result": "7.7±3.3", "unit": "%"},
      {"measurement": "effect on NaChBac channel currents", "setting": "[1]", "result": "no effect"}
    ]},
    {"molecule": "QX-222", "values": [
      {"measurement": "% of block in NaChBac", "setting": "[1]", "result": "15.3±2.7", "unit": "%"}
    ]}
  ]
}
